Data taken from ChEMBL document CHEMBL4800726, “Data for DCP probe MSC-4381” (2021).

Key:
[1] = molecular target: 5-hydroxytryptamine receptor 6 (Homo sapiens, UniProt P50406); test: GPCRScan assay: inhibition of 5-HT6; design: radioligand conc. used [nm] 2.0 – 4.0, parental cells stable HEK
[2] = molecular target: Sodium-dependent dopamine transporter (Homo sapiens, UniProt Q01959); test: GPCRScan assay: inhibition of DAT; design: radioligand conc. used [nm] 3.6 – 16.0, parental cells stable HEK
[3] = GPCRScan assay: inhibition of GABA/PBR; design: species or system Rattus norvegicus; radioligand conc. used [nm] 0.3 – 2.0, parental cells brain tissue
[4] = molecular target: Monocarboxylate transporter 1 (Homo sapiens, UniProt P53985); test: Lactate efflux inhibition assay (SNU-398)
[5] = molecular target: Monocarboxylate transporter 1/4 (Homo sapiens, UniProt P53985+O15427); test: Lactate efflux inhibition assay (MiaPaCa2 ); type: protein assay
[6] = molecular target: 5-hydroxytryptamine receptor 5A (Homo sapiens, UniProt P47898); settings: Compound concentration 10.0 uM
[7] = molecular target: D(3) dopamine receptor (Homo sapiens) (UniProt P35462); settings: Compound concentration 10.0 uM
[8] = molecular target: Sigma intracellular receptor 2 (Homo sapiens) (UniProt Q5BJF2); settings: Compound concentration 10.0 uM
[9] = molecular target: Adenosine receptor A1 (Homo sapiens) (UniProt P30542); test: A1 (h) Eurofins-Cerep binding assay; design: ligand concentration 1 nM; settings: filed as antagonist, Compound concentration 10.0 uM
[10] = molecular target: Adenosine receptor A3 (Homo sapiens) (UniProt P0DMS8); test: A3 (h) Eurofins-Cerep binding assay; design: ligand concentration 0.15 nM; settings: filed as agonist, Compound concentration 10.0 uM
[11] = molecular target: B2 bradykinin receptor (Homo sapiens) (UniProt P30411); test: B2 (h) Eurofins-Cerep binding assay; design: ligand concentration 0.3 nM; settings: filed as agonist, Compound concentration 10.0 uM
[12] = molecular target: D(1A) dopamine receptor (Homo sapiens) (UniProt P21728); test: D1 (h) Eurofins-Cerep binding assay; design: ligand concentration 0.3 nM; settings: filed as antagonist, Compound concentration 10.0 uM
[13] = molecular target: Endothelin-1 receptor (Homo sapiens) (UniProt P25101); test: ETA (h) Eurofins-Cerep binding assay; design: ligand concentration 0.03 nM; settings: filed as agonist, Compound concentration 10.0 uM
[14] = molecular target: GABA-A receptor; anion channel (Rattus norvegicus) (UniProt O09028+P15431+P18506+P18508+P19969+P20236+P23574+P23576+P28471+P28473+P30191+P62813+P63079+P63138+Q91ZM7+Q9ES14); test: GABA (non-selective) Eurofins-Cerep binding assay; type: protein-complex assay; design: ligand concentration 10 nM; settings: filed as agonist, Compound concentration 10.0 uM
[15] = molecular target: Histamine H2 receptor (Homo sapiens) (UniProt P25021); test: H2 (h) Eurofins-Cerep binding assay; design: ligand concentration 0.075 nM; settings: filed as antagonist, Compound concentration 10.0 uM
[16] = molecular target: T1, Muscarinic acetylcholine receptor M1 (Homo sapiens) (UniProt P11229); test: M1 (h) Eurofins-Cerep binding assay; design: ligand concentration 2 nM; settings: filed as antagonist, Compound concentration 10.0 uM
T1 sequence (whole entry): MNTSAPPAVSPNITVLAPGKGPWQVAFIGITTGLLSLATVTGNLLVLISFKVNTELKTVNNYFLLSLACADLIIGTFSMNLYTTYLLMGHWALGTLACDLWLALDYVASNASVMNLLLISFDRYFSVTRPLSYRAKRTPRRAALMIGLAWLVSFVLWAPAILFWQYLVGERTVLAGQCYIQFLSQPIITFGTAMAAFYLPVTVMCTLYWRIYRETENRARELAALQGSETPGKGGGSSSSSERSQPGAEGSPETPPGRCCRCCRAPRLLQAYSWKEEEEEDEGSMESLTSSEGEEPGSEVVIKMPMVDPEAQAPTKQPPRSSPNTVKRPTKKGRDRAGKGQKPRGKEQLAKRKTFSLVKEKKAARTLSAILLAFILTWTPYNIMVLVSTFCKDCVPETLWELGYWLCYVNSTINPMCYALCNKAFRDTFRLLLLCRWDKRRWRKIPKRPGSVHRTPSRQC

[17] = molecular target: Neuropeptide Y receptor type 1 (Homo sapiens) (UniProt P25929); test: Y1 (h) Eurofins-Cerep binding assay; design: ligand concentration 0.025 nM; settings: filed as agonist, Compound concentration 10.0 uM
[18] = molecular target: Neurotensin receptor type 1 (Homo sapiens) (UniProt P30989); test: NTS1 (NT1) (h) Eurofins-Cerep binding assay; design: ligand concentration 0.05 nM; settings: filed as agonist, Compound concentration 10.0 uM
[19] = molecular target: Kappa-type opioid receptor (Homo sapiens) (UniProt P41145); test: kappa (h) (KOP) Eurofins-Cerep binding assay; design: ligand concentration 0.5 nM; settings: filed as agonist, Compound concentration 10.0 uM
[20] = molecular target: 5-hydroxytryptamine receptor 1B (Homo sapiens) (UniProt P28222); test: 5-HT1B(h) Eurofins-Cerep binding assay; design: ligand concentration 1 nM; settings: filed as antagonist, Compound concentration 10.0 uM
[21] = molecular target: 5-hydroxytryptamine receptor 2B (Homo sapiens) (UniProt P41595); test: 5-HT2B (h) Eurofins-Cerep binding assay; design: ligand concentration 0.2 nM; settings: filed as agonist, Compound concentration 10.0 uM
[22] = molecular target: T2, 5-hydroxytryptamine receptor 3A (Homo sapiens) (UniProt P46098); test: 5-HT3 (h) Eurofins-Cerep binding assay; design: ligand concentration 0.5 nM; settings: filed as antagonist, Compound concentration 10.0 uM
T2 sequence (whole entry): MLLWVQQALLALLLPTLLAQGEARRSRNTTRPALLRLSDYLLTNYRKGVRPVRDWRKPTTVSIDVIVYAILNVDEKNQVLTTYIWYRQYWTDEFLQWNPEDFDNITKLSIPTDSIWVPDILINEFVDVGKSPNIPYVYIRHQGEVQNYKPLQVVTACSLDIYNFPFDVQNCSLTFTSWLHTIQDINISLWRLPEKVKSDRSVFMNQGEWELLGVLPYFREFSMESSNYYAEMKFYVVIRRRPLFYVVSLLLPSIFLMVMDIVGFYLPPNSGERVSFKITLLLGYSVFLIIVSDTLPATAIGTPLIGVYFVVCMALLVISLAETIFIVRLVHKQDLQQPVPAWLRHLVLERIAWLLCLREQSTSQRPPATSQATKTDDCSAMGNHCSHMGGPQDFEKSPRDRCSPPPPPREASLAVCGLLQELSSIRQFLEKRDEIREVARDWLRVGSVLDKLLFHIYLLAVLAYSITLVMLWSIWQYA

[23] = molecular target: Vasoactive intestinal polypeptide receptor 1 (Homo sapiens) (UniProt P32241); test: VPAC1 (VIP1) (h) Eurofins-Cerep binding assay; design: ligand concentration 0.04 nM; settings: filed as agonist, Compound concentration 10.0 uM
[24] = molecular target: L-type Ca2+ channel (dihydropyridine site) (Rattus norvegicus, UniProt P22002+P27732+Q02485); test: Ca2+ channel (L, dihydropyridine site) Eurofins-Cerep binding assay; type: protein assay; design: incubation time 90 min, incubation temperature RT, ligand concentration 0.1 nM; settings: rat cerebral cortex, probe [3H]nitrendipine, compound concentration 10 uM, read-out: % Inhibition of Control Specific Binding (Mean n=2)
[25] = molecular target: L-type Ca2+ channel (verapamil site, phenylalkylamine) (Rattus norvegicus, UniProt P22002+P27732+Q02485); test: Ca2+ channel (L, verapamil site) (phenylalkylamine) Eurofins-Cerep binding assay; type: protein assay; design: incubation time 120 min, incubation temperature RT, ligand concentration 3 nM; settings: rat cerebral cortex, probe [3H]D888, compound concentration 10 uM, read-out: % Inhibition of Control Specific Binding (Mean n=2)
Rattus norvegicus [26] = organism: Rattus norvegicus; test: KV channel Eurofins-Cerep binding assay; settings: filed as antagonist, Compound concentration 10.0 uM
Rattus norvegicus [27] = organism: Rattus norvegicus; test: SKCa channel Eurofins-Cerep binding assay; design: ligand concentration 0.007 nM; settings: filed as antagonist, Compound concentration 10.0 uM
[28] = molecular target: Sodium-dependent noradrenaline transporter (Homo sapiens) (UniProt P23975); test: norepinephrine transporter (h) Eurofins-Cerep binding assay; design: ligand concentration 1 nM; settings: filed as antagonist, Compound concentration 10.0 uM
[29] = molecular target: Muscarinic acetylcholine receptor M3 (Homo sapiens) (UniProt P20309); settings: Compound concentration 10.0 uM

Sequence of 5-hydroxytryptamine receptor 6 (P50406 whole entry): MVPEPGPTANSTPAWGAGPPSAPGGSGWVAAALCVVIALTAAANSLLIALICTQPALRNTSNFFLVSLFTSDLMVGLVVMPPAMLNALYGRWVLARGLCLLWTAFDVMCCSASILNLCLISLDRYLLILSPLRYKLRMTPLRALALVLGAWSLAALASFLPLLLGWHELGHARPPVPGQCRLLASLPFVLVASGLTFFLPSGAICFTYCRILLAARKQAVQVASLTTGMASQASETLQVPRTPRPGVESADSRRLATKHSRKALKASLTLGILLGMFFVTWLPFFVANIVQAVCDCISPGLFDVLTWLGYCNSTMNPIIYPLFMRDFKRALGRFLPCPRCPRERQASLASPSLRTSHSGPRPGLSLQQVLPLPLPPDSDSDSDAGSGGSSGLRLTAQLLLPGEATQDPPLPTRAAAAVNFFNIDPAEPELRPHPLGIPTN
Sequence of Sodium-dependent dopamine transporter (Q01959 whole entry): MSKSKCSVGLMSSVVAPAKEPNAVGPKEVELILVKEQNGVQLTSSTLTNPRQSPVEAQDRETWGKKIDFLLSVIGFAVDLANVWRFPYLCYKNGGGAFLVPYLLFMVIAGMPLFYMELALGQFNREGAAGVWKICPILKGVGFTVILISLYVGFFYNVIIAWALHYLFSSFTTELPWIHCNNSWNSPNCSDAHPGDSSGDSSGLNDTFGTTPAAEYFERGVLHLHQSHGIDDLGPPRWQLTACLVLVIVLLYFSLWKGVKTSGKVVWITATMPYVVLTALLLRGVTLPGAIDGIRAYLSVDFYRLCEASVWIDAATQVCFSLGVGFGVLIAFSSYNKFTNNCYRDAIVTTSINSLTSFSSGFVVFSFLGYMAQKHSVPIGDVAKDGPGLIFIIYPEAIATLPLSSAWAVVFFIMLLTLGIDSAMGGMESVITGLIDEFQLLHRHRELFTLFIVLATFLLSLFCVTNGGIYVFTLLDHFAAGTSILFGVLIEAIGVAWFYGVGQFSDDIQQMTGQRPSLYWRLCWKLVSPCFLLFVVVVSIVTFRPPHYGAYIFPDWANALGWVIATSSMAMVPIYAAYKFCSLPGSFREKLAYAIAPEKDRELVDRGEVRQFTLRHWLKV
Sequence of Kappa-type opioid receptor (Homo sapiens) (P41145 whole entry): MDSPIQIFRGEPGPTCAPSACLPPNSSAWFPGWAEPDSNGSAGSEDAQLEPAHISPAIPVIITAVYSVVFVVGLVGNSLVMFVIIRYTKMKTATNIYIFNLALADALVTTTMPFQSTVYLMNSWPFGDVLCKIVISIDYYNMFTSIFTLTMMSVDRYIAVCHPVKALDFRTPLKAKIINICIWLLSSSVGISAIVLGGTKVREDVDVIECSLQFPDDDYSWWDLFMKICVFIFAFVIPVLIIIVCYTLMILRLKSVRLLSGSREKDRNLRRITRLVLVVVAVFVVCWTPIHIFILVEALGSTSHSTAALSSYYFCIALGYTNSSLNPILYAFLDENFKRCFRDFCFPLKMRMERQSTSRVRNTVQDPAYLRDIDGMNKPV
Sequence of 5-hydroxytryptamine receptor 5A (P47898 whole entry): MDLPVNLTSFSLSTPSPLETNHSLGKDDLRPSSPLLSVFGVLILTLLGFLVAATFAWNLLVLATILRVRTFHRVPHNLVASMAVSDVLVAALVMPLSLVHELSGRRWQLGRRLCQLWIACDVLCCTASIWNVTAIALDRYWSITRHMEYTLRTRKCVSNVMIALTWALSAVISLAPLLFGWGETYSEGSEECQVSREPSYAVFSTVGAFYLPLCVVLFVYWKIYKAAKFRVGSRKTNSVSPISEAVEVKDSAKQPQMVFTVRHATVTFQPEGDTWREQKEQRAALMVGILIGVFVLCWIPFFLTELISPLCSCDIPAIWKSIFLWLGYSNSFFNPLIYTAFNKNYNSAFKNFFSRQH
Sequence of D(1A) dopamine receptor (Homo sapiens) (P21728 whole entry): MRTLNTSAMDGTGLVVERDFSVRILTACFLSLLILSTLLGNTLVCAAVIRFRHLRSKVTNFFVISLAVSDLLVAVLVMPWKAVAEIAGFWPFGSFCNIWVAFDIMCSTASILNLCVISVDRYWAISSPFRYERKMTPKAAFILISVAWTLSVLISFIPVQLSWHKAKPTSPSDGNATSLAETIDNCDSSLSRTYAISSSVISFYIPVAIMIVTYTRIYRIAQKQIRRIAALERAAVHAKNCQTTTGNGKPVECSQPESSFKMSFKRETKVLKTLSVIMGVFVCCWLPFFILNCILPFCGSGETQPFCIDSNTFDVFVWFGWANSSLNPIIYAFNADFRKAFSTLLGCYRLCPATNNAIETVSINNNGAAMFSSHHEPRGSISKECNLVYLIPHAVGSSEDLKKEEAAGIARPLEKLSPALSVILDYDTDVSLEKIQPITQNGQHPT
Sequence of Monocarboxylate transporter 1 (P53985 whole entry): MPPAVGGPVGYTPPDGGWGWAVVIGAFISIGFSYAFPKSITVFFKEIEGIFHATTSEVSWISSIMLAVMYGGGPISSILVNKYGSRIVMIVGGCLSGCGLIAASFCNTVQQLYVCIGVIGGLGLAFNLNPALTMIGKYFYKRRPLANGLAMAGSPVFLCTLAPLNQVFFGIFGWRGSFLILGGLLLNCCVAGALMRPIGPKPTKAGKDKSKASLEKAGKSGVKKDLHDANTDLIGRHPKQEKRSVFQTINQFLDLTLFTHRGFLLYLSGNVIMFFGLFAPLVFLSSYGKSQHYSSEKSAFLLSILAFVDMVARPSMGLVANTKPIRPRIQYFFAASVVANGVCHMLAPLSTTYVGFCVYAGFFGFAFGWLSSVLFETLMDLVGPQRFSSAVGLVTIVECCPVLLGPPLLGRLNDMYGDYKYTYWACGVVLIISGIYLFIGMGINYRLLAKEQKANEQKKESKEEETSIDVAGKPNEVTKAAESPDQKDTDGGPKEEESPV
Sequence of Adenosine receptor A3 (Homo sapiens) (P0DMS8 whole entry): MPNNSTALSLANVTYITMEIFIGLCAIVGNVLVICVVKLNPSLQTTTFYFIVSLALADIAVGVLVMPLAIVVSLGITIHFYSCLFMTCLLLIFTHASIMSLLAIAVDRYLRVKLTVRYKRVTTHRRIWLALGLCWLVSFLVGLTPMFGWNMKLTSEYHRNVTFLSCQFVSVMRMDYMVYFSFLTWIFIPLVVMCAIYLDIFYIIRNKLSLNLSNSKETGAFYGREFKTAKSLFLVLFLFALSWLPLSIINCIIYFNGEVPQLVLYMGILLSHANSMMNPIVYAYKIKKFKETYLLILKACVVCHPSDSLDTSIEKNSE
Sequence of D(3) dopamine receptor (Homo sapiens) (P35462 whole entry): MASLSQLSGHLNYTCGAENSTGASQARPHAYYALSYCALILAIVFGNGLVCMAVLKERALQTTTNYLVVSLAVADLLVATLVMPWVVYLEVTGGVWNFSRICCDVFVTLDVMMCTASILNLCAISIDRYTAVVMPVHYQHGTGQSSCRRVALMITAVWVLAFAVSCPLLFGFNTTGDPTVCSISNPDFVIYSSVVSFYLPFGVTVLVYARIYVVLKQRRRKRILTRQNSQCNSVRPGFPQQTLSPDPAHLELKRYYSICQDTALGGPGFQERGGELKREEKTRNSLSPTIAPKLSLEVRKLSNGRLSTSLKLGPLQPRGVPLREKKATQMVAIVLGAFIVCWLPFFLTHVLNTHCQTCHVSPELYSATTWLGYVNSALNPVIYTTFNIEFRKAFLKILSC
Sequence of Endothelin-1 receptor (Homo sapiens) (P25101 whole entry): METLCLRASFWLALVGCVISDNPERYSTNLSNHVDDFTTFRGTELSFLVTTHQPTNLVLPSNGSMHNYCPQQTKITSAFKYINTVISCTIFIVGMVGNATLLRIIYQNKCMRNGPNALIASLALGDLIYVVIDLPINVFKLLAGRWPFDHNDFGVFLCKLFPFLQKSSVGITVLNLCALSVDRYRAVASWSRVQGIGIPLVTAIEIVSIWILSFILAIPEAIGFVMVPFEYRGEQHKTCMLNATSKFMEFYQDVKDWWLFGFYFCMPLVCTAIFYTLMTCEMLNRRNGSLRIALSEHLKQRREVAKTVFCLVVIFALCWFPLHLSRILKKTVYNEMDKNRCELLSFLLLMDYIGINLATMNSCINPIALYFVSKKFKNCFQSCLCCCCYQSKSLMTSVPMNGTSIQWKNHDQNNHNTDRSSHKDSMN
Sequence of Sigma intracellular receptor 2 (Homo sapiens) (Q5BJF2 whole entry): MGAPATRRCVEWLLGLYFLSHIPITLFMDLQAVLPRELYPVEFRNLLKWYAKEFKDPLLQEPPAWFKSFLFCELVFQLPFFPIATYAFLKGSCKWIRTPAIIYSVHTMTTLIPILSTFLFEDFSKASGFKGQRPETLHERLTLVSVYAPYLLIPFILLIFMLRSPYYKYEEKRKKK
Sequence of Sodium-dependent noradrenaline transporter (Homo sapiens) (P23975 whole entry): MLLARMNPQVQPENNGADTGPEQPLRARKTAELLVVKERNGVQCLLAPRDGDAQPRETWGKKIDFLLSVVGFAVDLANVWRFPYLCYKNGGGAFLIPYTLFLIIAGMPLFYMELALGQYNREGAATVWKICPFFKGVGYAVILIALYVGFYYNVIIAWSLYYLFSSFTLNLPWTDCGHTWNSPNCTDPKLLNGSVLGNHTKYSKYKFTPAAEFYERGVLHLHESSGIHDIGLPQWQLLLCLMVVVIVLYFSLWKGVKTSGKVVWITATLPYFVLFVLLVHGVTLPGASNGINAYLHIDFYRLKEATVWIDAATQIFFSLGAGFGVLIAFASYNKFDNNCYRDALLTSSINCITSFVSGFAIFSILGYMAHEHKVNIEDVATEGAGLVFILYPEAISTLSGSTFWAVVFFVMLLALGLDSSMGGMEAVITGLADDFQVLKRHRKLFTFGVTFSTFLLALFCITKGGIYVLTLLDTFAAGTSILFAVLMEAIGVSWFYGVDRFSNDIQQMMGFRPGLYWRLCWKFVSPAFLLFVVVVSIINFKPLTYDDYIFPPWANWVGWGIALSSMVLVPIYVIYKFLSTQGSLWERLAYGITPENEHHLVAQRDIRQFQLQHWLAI

## COc1cc(C(=O)O)ncc1C#Cc1ccccc1NS(=O)(=O)c1cccc2c(N(C)C)ccnc12 [MSC-0516]
[1]; read-out: Ki
  Ki: 1.52 µM
[1]; read-out: pKi (converted)
  Ki: 1.45 µM
[2]; read-out: Ki
  Ki: 9.59 µM
[2]; read-out: pKi (converted)
  Ki: 9.55 µM
[3]
  Ki: 0.734 µM
  pKi: 6.14
[4]
  IC50: > 4 µM (not active)
[5]
  IC50: > 4 µM
[6]
  inhibition: 12.2%
[7]
  inhibition: -9.21%
[8]
  inhibition: 25%

## CCOc1ccc(S(=O)(=O)Nc2ccc(Cl)cc2C#Cc2cnc(C(=O)O)cc2OC)c2ncccc12 [MSC-4381]
[9]
  % Inhibition of Control Specific Binding (Mean n=2): 56.2%
[10]
  % Inhibition of Control Specific Binding (Mean n=2): 28.1%
[11]
  % Inhibition of Control Specific Binding (Mean n=2): -1.1%
[12]
  % Inhibition of Control Specific Binding (Mean n=2): 28.9%
[13]
  % Inhibition of Control Specific Binding (Mean n=2): -0.2%
[14]
  % Inhibition of Control Specific Binding (Mean n=2): 1.2%
[15]
  % Inhibition of Control Specific Binding (Mean n=2): -16.1%
[16]
  % Inhibition of Control Specific Binding (Mean n=2): 4.6%
[17]
  % Inhibition of Control Specific Binding (Mean n=2): -7.5%
[18]
  % Inhibition of Control Specific Binding (Mean n=2): -10.4%
[19]
  % Inhibition of Control Specific Binding (Mean n=2): -12.1%
[20]
  % Inhibition of Control Specific Binding (Mean n=2): -15.6%
[21]
  % Inhibition of Control Specific Binding (Mean n=2): -47.1%
[22]
  % Inhibition of Control Specific Binding (Mean n=2): -8%
[23]
  % Inhibition of Control Specific Binding (Mean n=2): -3.2%
[24]
  inhibition at 90 min, 10 µM: -11%
[25]
  inhibition at 120 min, 10 µM: -9.8%
Rattus norvegicus [26]
  % Inhibition of Control Specific Binding (Mean n=2): -5.9%
Rattus norvegicus [27]
  % Inhibition of Control Specific Binding (Mean n=2): -6.7%
[28]
  % Inhibition of Control Specific Binding (Mean n=2): 30.4%
[29]
  inhibition: 9.34%
